The supplement of paper PMC10307832

Experiments:
Assay in all cases: relative viability (nuclei count vs DMSO), 5 days (fraction); higher = more cells survive
[1] = compound: COc1cc2ncn(-c3cc(OCc4ccccc4C(F)(F)F)c(C(N)=O)s3)c2cc1OC + COc1cccc2cc(-c3nc([C@H]4CC[C@H](C(=O)O)CC4)n4ncnc(N)c34)[nH]c12 [OSI-027] (partner 0.5 µM)
Method in brief: (§1)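 Relative viability equals treated-well nuclei counts divided by vehicle-well nuclei counts. Counts came from 4× images of lung cancer cell lines grown in 1536-well plates for 5 days after pin-tool dosing on the day after seeding. Dosing used one drug alone or a fixed anchor-drug dose plus five library-drug doses (not always all listed) in √10 steps, and values are medians of duplicate plates.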

[2] = compound: COc1cc2ncn(-c3cc(OCc4ccccc4C(F)(F)F)c(C(N)=O)s3)c2cc1OC + Cc1cc(Nc2cc(N3CCN(C)CC3)nc(Sc3ccc(NC(=O)C4CC4)cc3)n2)n[nH]1 [Tozasertib] (partner 0.1 µM)
Method in brief: as §1

[3] = compound: COc1cc2ncn(-c3cc(OCc4ccccc4C(F)(F)F)c(C(N)=O)s3)c2cc1OC + C[C@@H](Oc1cc(-c2cnn(C3CCNCC3)c2)cnc1N)c1c(Cl)ccc(F)c1Cl [Crizotinib] (partner 1 µM)
Method in brief: as §1

[4] = compound: COc1cc2ncn(-c3cc(OCc4ccccc4C(F)(F)F)c(C(N)=O)s3)c2cc1OC + C[C@]1(O)C[C@@H](c2nc(-c3ccc4ccc(-c5ccccc5)nc4c3)c3c(N)nccn32)C1 [Linsitinib] (partner 1 µM)
Method in brief: as §1

| Cell Line | relative viability ([1]; first compound 0.05 µM) | relative viability ([1]; first compound 0.1581 µM) | relative viability ([1]; first compound 0.5 µM) | relative viability ([1]; first compound 1.581 µM) | relative viability ([1]; first compound 5 µM) | relative viability ([2]; first compound 0.05 µM) | relative viability ([2]; first compound 0.1581 µM) | relative viability ([2]; first compound 0.5 µM) | relative viability ([2]; first compound 1.581 µM) | relative viability ([2]; first compound 5 µM) | relative viability ([3]; first compound 0.05 µM) | relative viability ([3]; first compound 0.1581 µM) | relative viability ([3]; first compound 0.5 µM) | relative viability ([3]; first compound 1.581 µM) | relative viability ([3]; first compound 5 µM) | relative viability ([4]; first compound 0.05 µM) | relative viability ([4]; first compound 0.1581 µM) | relative viability ([4]; first compound 0.5 µM) | relative viability ([4]; first compound 1.581 µM) | relative viability ([4]; first compound 5 µM) |
| --- | --- | --- | --- | --- | --- | --- | --- | --- | --- | --- | --- | --- | --- | --- | --- | --- | --- | --- | --- | --- |
| SK-LU-1 | 0.33 | 0.332 | 0.168 | 0.196 | 0.188 | 0.306 | 0.301 | 0.285 | 0.225 | 0.206 | 0.935 | 0.832 | 0.411 | 0.296 | 0.313 | 1.28 | 1.01 | 0.395 | 0.399 | 0.295 |
| LOU-NH91 | 0.677 | 0.772 | 0.656 | 0.525 | 0.682 | 0.653 | 0.641 | 0.399 | 0.29 | 0.31 | 0.772 | 0.779 | 0.626 | 0.483 | 0.459 | 0.94 | 1.05 | 0.824 | 0.526 | 0.595 |
| NCI-H2347 | 0.488 | 0.492 | 0.326 | 0.308 | 0.375 | 0.464 | 0.622 | 0.264 | 0.372 | 0.363 | 0.58 | 0.736 | 0.603 | 0.537 | 0.385 | 0.99 | 0.915 | 0.84 | 0.572 | 0.759 |
| NCI-H2126 | 0.715 | 0.771 | 0.604 | 0.289 | 0.22 | 0.756 | 0.908 | 0.521 | 0.218 | 0.245 | 1.05 | 1 | 0.849 | 0.419 | 0.264 | 0.721 | 0.772 | 0.587 | 0.292 | 0.264 |
| HCC-827 | 0.794 | 0.9 | 0.564 | 0.228 | 0.14 | 0.411 | 0.397 | 0.37 | 0.344 | 0.313 | 0.925 | 0.871 | 0.698 | 0.341 | 0.287 | 0.968 | 0.924 | 0.798 | 0.401 | 0.27 |
| NCI-H3122 | 1.01 | 0.555 | 0.124 | 0.113 | 0.157 | 0.359 | 0.392 | 0.211 | 0.286 | 0.284 | 0.245 | 0.288 | 0.23 | 0.186 | 0.173 | 0.943 | 1.07 | 0.256 | 0.184 | 0.221 |
| HOP-62 | 0.846 | 0.888 | 0.537 | 0.226 | 0.144 | 0.361 | 0.334 | 0.241 | 0.175 | 0.201 | 0.765 | 0.935 | 0.824 | 0.206 | 0.101 | 0.95 | 0.966 | 0.547 | 0.116 | 0.0914 |
| HCC-44 | 0.626 | 0.484 | 0.216 | 0.187 | 0.161 | 0.983 | 0.903 | 0.242 | 0.346 | 0.199 | 0.818 | 0.815 | 0.503 | 0.123 | 0.104 | 0.773 | 0.621 | 0.55 | 0.141 | 0.109 |
